Earlier results as cited in US20240360061A1, “Synthetic Cannabinoid Compounds, Pharmaceutical Compositions, and Treatment Methods” (Miralogx LLC, priority 2022, published 2024).

What was measured:
[1] = 2.5 to 5 mg THC, three patients
[2] = several clinical studies
[3] = oral THC 15 mg; compared with salbutamol, isoprenaline
[4] = Type-2 diabetes; cited from J. Cannabis Research (2020) 2:6

Row | Structure (SMILES) | effect on pruritus due to liver diseases [1] | mood in reactive depression [2] | anti-asthmatic (bronchodilator) effect [3] | Homeostasis Model Assessment (HOMA2) of pancreatic β-cell function [4] | fasting plasma glucose [4]
1 | CCCCCc1cc(O)c2c(c1)OC(C)(C)[C@@H]1CCC(C)=C[C@@H]21 [THC, tetrahydrocannabinol] | effective | improvement of mood | approximately correspond to those obtained with therapeutic doses of common bronchodilator drugs |  | 
2 | CCCc1cc(O)c2c(c1)OC(C)(C)[C@@H]1CCC(C)=C[C@@H]21 [THCV, Δ9-Tetrahydrocannabivarin] |  |  |  | improve | significantly decrease
